The first experiment concerns the target KIT (human) (UniProt P10721). In words: radiometric filter-binding kinase assay, Kinase HotSpot. Conditions: compound 0.5 µM; ATP 10 µM.
For `COc1ccc(OC)c2c(=S)c3ccccc3[nH]c12`, the residual activity is 78.6%.
Still for that read-out and setting: the figure for `O=C1NC(=O)/C(=C\c2ccc3nccnc3c2)S1` is 87.5%; for `CC(C)c1nn(-c2c(Cl)cccc2Cl)c2nc(Cc3ccc(OCCO)cc3)nc(O)c12` it is 71%.

The target in another experiment is CSNK2A2 (human) (UniProt P19784). The experiment is described as above. The conditions noted are these: compound 0.5 µM; ATP 10 µM.
For `COc1ccc(OC)c2c(=S)c3ccccc3[nH]c12`, the residual activity came out at 87.1%.
On the same count and under the same terms, to `O=C1NC(=O)/C(=C\c2ccc3nccnc3c2)S1` belongs 3.08%.
Consider `CC(C)c1nn(-c2c(Cl)cccc2Cl)c2nc(Cc3ccc(OCCO)cc3)nc(O)c12`, for which the residual activity worked out at 92.2%.

The next experiment concerns the target DYRK4 (human) (UniProt Q9NR20). Described as above. The conditions noted are these: compound 0.5 µM; ATP 10 µM.
For the compound `COc1ccc(OC)c2c(=S)c3ccccc3[nH]c12`, the residual activity stood at 107%.
Same read-out and setting: the figure for `O=C1NC(=O)/C(=C\c2ccc3nccnc3c2)S1` is 96.5%.
Same read-out and setting: the figure for `CC(C)c1nn(-c2c(Cl)cccc2Cl)c2nc(Cc3ccc(OCCO)cc3)nc(O)c12` is 96.7%.

For a further experiment, the target named is EPHA1 (human) (UniProt P21709). Described as above. The conditions noted are these: compound 0.5 µM; ATP 10 µM.
EPHA1 (human), sequence (P21709 whole entry, looked up): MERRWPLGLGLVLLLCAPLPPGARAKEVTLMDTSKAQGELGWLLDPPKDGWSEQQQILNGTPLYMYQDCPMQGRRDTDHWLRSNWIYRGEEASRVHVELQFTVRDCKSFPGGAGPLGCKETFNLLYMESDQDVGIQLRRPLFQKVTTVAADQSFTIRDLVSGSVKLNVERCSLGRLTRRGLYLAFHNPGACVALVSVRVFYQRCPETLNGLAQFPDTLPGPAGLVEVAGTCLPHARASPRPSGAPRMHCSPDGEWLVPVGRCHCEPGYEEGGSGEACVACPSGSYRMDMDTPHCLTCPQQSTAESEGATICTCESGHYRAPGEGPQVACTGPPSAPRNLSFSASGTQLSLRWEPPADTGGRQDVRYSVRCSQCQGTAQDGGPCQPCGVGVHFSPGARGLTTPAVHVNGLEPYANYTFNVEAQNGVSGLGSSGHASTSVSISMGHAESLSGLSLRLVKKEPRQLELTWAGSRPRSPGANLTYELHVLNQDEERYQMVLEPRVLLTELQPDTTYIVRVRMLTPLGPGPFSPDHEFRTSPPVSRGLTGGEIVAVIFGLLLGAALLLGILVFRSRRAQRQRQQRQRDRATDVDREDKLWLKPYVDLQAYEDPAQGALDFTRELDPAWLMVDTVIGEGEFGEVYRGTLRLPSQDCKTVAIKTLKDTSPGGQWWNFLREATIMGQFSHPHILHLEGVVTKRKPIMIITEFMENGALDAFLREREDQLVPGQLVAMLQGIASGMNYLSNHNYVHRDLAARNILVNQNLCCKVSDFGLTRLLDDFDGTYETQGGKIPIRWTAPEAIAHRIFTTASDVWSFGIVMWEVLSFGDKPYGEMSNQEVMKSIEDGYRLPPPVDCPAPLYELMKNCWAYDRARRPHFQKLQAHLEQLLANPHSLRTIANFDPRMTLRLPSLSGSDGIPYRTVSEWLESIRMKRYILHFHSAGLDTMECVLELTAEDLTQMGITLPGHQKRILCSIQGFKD
In the case of `COc1ccc(OC)c2c(=S)c3ccccc3[nH]c12`, the residual activity came to 89%.
On to `O=C1NC(=O)/C(=C\c2ccc3nccnc3c2)S1`, for which the residual activity stood at 91.8%.
The same measure, in the same setting: to `CC(C)c1nn(-c2c(Cl)cccc2Cl)c2nc(Cc3ccc(OCCO)cc3)nc(O)c12` belongs 95%.

In a further experiment the target is DSTYK (human) (UniProt Q6XUX3). The experiment is described as above. Conditions: compound 0.5 µM; ATP 10 µM.
With `COc1ccc(OC)c2c(=S)c3ccccc3[nH]c12`, the residual activity stood at 91.3%.
As to `O=C1NC(=O)/C(=C\c2ccc3nccnc3c2)S1`, the residual activity is 89.9%.
Still for that read-out and setting: to `CC(C)c1nn(-c2c(Cl)cccc2Cl)c2nc(Cc3ccc(OCCO)cc3)nc(O)c12` belongs 93.1%.

A further experiment deals with STK11 (human) (UniProt Q15831). Described as above. Conditions: compound 0.5 µM; ATP 10 µM.
For `COc1ccc(OC)c2c(=S)c3ccccc3[nH]c12`, the residual activity turned out to be 84.4%.
For `O=C1NC(=O)/C(=C\c2ccc3nccnc3c2)S1`, the residual activity was found to be 96.6%.
Regarding `CC(C)c1nn(-c2c(Cl)cccc2Cl)c2nc(Cc3ccc(OCCO)cc3)nc(O)c12`, the residual activity is 47.7%.

For a further experiment, the target named is FLT3 (human) (UniProt P36888). The experiment is described as above. Conditions: compound 0.5 µM; ATP 10 µM.
Consider `COc1ccc(OC)c2c(=S)c3ccccc3[nH]c12`, for which the residual activity worked out at 71%.
Still for that read-out and setting: to `O=C1NC(=O)/C(=C\c2ccc3nccnc3c2)S1` belongs 95.2%; to `CC(C)c1nn(-c2c(Cl)cccc2Cl)c2nc(Cc3ccc(OCCO)cc3)nc(O)c12`, 74.2%.

In a further experiment the target is PKN1 (human) (UniProt Q16512). The description is as above. The conditions noted are these: compound 0.5 µM; ATP 10 µM.
Regarding `COc1ccc(OC)c2c(=S)c3ccccc3[nH]c12`, the residual activity came to 109%.
In the case of `O=C1NC(=O)/C(=C\c2ccc3nccnc3c2)S1`, the residual activity worked out at 101%.
Regarding `CC(C)c1nn(-c2c(Cl)cccc2Cl)c2nc(Cc3ccc(OCCO)cc3)nc(O)c12`, the residual activity came to 97%.

Another experiment concerns the target ROCK2 (human) (UniProt O75116). The description is as above. The conditions noted are these: compound 0.5 µM; ATP 10 µM.
In the case of `COc1ccc(OC)c2c(=S)c3ccccc3[nH]c12`, the residual activity turned out to be 90.4%.
Consider `O=C1NC(=O)/C(=C\c2ccc3nccnc3c2)S1`, for which the residual activity is 91.3%.
On the same count and under the same terms, to `CC(C)c1nn(-c2c(Cl)cccc2Cl)c2nc(Cc3ccc(OCCO)cc3)nc(O)c12` belongs 92.5%.

The target of a further experiment is MAP4K5 (human) (UniProt Q9Y4K4). Described as above. Conditions: compound 0.5 µM; ATP 10 µM.
MAP4K5 (human), sequence (Q9Y4K4 whole entry, looked up): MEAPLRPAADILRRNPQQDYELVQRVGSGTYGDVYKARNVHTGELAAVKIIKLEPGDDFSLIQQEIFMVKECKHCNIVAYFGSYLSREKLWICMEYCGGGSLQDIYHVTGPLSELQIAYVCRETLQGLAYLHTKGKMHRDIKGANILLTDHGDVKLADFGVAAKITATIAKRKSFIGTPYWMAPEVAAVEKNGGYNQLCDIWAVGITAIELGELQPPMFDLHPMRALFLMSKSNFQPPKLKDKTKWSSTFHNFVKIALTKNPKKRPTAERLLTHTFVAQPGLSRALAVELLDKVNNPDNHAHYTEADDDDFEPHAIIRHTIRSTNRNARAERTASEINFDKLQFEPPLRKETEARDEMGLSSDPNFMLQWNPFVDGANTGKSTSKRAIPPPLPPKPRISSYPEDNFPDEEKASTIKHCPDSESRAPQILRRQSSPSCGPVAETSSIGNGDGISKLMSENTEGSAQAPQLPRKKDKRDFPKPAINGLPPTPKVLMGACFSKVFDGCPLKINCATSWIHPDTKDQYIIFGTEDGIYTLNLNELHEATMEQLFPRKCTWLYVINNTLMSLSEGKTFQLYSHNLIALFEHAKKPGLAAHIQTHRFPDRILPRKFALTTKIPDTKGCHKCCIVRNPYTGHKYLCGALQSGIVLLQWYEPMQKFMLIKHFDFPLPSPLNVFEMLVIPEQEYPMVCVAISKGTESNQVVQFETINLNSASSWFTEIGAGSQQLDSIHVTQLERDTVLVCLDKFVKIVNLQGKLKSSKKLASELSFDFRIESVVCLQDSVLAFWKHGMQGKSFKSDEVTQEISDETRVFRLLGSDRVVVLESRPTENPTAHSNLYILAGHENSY
Turning to `COc1ccc(OC)c2c(=S)c3ccccc3[nH]c12`, the residual activity worked out at 95.2%.
The same measure, in the same setting: to `O=C1NC(=O)/C(=C\c2ccc3nccnc3c2)S1` belongs 85.4%; to `CC(C)c1nn(-c2c(Cl)cccc2Cl)c2nc(Cc3ccc(OCCO)cc3)nc(O)c12`, 89.9%.

A further experiment deals with ABL1 (human) (UniProt P00519). The experiment is described as above. Conditions: compound 0.5 µM; ATP 10 µM.
Consider `COc1ccc(OC)c2c(=S)c3ccccc3[nH]c12`, for which the residual activity came to 91.7%.
The same measure, in the same setting: to `O=C1NC(=O)/C(=C\c2ccc3nccnc3c2)S1` belongs 95.7%; to `CC(C)c1nn(-c2c(Cl)cccc2Cl)c2nc(Cc3ccc(OCCO)cc3)nc(O)c12`, 95.6%.

In a further experiment the target is FGFR1 (human) (UniProt P11362). The description is as above. Conditions: compound 0.5 µM; ATP 10 µM.
FGFR1 (human), sequence (P11362 whole entry, looked up): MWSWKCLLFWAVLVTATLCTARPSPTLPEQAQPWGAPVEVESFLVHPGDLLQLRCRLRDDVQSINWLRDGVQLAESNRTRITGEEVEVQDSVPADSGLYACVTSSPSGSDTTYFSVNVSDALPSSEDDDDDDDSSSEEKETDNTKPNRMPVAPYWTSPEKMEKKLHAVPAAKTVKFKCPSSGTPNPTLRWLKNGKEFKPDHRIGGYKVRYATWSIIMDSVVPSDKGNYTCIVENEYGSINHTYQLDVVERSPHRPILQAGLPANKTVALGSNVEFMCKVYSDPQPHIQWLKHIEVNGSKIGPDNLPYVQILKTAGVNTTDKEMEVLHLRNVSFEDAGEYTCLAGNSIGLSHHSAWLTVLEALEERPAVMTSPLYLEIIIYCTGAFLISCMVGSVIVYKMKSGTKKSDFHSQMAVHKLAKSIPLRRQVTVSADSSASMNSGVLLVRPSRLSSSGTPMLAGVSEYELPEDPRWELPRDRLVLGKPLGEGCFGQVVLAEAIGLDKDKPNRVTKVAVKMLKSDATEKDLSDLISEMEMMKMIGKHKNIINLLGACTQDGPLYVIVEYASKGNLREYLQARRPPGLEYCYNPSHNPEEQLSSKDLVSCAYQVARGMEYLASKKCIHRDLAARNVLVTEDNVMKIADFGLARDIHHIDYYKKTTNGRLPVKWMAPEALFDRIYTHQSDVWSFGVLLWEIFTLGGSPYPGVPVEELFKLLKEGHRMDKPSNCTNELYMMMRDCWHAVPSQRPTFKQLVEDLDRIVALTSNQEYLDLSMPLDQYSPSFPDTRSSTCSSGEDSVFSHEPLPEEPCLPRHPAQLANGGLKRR
Regarding `COc1ccc(OC)c2c(=S)c3ccccc3[nH]c12`, the residual activity stood at 89.6%.
The same measure, in the same setting: to `O=C1NC(=O)/C(=C\c2ccc3nccnc3c2)S1` belongs 88.5%.
On the same count and under the same terms, the figure for `CC(C)c1nn(-c2c(Cl)cccc2Cl)c2nc(Cc3ccc(OCCO)cc3)nc(O)c12` is 84.2%.

The target in the next experiment is AURKC (human) (UniProt Q9UQB9). Described as above. The conditions noted are these: compound 0.5 µM; ATP 10 µM.
`COc1ccc(OC)c2c(=S)c3ccccc3[nH]c12`: the residual activity came out at 88.2%.
Still for that read-out and setting: to `O=C1NC(=O)/C(=C\c2ccc3nccnc3c2)S1` belongs 95.6%.
On the same count and under the same terms, the figure for `CC(C)c1nn(-c2c(Cl)cccc2Cl)c2nc(Cc3ccc(OCCO)cc3)nc(O)c12` is 87.6%.

The target of a further experiment is STK24 (human) (UniProt Q9Y6E0). The experiment is described as above. Conditions: compound 0.5 µM; ATP 10 µM.
As for `COc1ccc(OC)c2c(=S)c3ccccc3[nH]c12`, the residual activity stood at 78.9%.
Still for that read-out and setting: the figure for `O=C1NC(=O)/C(=C\c2ccc3nccnc3c2)S1` is 93.2%; for `CC(C)c1nn(-c2c(Cl)cccc2Cl)c2nc(Cc3ccc(OCCO)cc3)nc(O)c12` it is 47.9%.

In a further experiment the target is MAP4K2 (human) (UniProt Q12851). The experiment is described as above. Conditions: compound 0.5 µM; ATP 10 µM.
MAP4K2 (human), sequence (Q12851 whole entry, looked up): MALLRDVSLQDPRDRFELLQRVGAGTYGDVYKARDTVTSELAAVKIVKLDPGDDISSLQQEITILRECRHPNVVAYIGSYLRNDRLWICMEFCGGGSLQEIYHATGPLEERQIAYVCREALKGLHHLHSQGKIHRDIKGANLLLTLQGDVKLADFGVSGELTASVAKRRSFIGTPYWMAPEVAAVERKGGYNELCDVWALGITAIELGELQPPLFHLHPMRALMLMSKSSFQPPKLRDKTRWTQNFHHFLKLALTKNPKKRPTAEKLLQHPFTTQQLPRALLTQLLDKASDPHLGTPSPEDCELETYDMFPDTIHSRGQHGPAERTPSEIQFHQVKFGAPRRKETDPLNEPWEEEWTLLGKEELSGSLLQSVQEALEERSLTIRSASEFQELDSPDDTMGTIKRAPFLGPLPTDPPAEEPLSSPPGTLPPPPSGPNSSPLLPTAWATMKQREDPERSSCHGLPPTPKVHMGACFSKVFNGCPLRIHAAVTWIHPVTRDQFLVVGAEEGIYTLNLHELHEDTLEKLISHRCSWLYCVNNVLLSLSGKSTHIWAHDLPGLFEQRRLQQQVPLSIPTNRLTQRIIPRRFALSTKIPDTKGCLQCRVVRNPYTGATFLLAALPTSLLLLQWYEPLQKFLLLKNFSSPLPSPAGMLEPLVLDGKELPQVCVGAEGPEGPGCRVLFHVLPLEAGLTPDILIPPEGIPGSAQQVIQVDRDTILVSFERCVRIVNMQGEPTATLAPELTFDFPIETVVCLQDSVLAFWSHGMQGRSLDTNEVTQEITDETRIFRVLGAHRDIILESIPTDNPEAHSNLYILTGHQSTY
With `COc1ccc(OC)c2c(=S)c3ccccc3[nH]c12`, the residual activity was found to be 96.5%.
On to `O=C1NC(=O)/C(=C\c2ccc3nccnc3c2)S1`, for which the residual activity amounted to 86.1%.
The same measure, in the same setting: to `CC(C)c1nn(-c2c(Cl)cccc2Cl)c2nc(Cc3ccc(OCCO)cc3)nc(O)c12` belongs 106%.

A further experiment addresses MAP3K7 TAB1 (human) (UniProt O43318+Q15750). Described as above. Conditions: compound 0.5 µM; ATP 10 µM.
In the case of `COc1ccc(OC)c2c(=S)c3ccccc3[nH]c12`, the residual activity worked out at 98.8%.
On the same count and under the same terms, the figure for `O=C1NC(=O)/C(=C\c2ccc3nccnc3c2)S1` is 98.7%.
`CC(C)c1nn(-c2c(Cl)cccc2Cl)c2nc(Cc3ccc(OCCO)cc3)nc(O)c12`: the residual activity is 98.5%.

A further experiment deals with BTK (human) (UniProt Q06187). The description is as above. Conditions: compound 0.5 µM; ATP 10 µM.
On to `COc1ccc(OC)c2c(=S)c3ccccc3[nH]c12`, for which the residual activity came to 102%.
Consider `O=C1NC(=O)/C(=C\c2ccc3nccnc3c2)S1`, for which the residual activity is 104%.
The same measure, in the same setting: the figure for `CC(C)c1nn(-c2c(Cl)cccc2Cl)c2nc(Cc3ccc(OCCO)cc3)nc(O)c12` is 100%.

The next experiment deals with CSNK2A1 (human) (UniProt P68400). The description is as above. The conditions noted are these: compound 0.5 µM; ATP 10 µM.
With `COc1ccc(OC)c2c(=S)c3ccccc3[nH]c12`, the residual activity is 100%.
Still for that read-out and setting: the figure for `O=C1NC(=O)/C(=C\c2ccc3nccnc3c2)S1` is 3.08%; for `CC(C)c1nn(-c2c(Cl)cccc2Cl)c2nc(Cc3ccc(OCCO)cc3)nc(O)c12` it is 88.8%.

A further experiment addresses MAPK9 (human) (UniProt P45984). The experiment is described as above. The conditions noted are these: compound 0.5 µM; ATP 10 µM.
Regarding `COc1ccc(OC)c2c(=S)c3ccccc3[nH]c12`, the residual activity amounted to 102%.
On the same count and under the same terms, to `O=C1NC(=O)/C(=C\c2ccc3nccnc3c2)S1` belongs 96%; to `CC(C)c1nn(-c2c(Cl)cccc2Cl)c2nc(Cc3ccc(OCCO)cc3)nc(O)c12`, 96.5%.

The target in another experiment is GRK6 (human) (UniProt P43250). The experiment is described as above. Conditions: compound 0.5 µM; ATP 10 µM.
GRK6 (human), sequence (P43250 whole entry, looked up): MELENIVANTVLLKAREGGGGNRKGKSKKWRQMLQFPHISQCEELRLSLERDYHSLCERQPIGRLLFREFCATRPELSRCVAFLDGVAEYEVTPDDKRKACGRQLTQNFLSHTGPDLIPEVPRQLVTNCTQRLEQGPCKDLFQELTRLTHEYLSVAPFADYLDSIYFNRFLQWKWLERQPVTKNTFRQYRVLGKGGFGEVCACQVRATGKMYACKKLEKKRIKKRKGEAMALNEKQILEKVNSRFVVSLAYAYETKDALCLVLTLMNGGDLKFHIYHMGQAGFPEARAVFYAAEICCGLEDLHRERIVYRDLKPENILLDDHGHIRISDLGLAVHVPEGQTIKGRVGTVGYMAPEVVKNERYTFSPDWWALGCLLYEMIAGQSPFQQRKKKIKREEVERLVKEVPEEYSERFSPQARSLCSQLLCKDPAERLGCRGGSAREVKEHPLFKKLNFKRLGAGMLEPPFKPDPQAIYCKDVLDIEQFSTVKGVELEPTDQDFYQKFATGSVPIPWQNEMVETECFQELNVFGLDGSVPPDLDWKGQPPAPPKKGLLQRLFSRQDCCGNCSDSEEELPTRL
Take `COc1ccc(OC)c2c(=S)c3ccccc3[nH]c12`: the residual activity is 97.2%.
Same read-out and setting: to `O=C1NC(=O)/C(=C\c2ccc3nccnc3c2)S1` belongs 97%; to `CC(C)c1nn(-c2c(Cl)cccc2Cl)c2nc(Cc3ccc(OCCO)cc3)nc(O)c12`, 101%.

The target of a further experiment is TYRO3 (human) (UniProt Q06418). The description is as above. The conditions noted are these: compound 0.5 µM; ATP 10 µM.
TYRO3 (human), sequence (Q06418 whole entry, looked up): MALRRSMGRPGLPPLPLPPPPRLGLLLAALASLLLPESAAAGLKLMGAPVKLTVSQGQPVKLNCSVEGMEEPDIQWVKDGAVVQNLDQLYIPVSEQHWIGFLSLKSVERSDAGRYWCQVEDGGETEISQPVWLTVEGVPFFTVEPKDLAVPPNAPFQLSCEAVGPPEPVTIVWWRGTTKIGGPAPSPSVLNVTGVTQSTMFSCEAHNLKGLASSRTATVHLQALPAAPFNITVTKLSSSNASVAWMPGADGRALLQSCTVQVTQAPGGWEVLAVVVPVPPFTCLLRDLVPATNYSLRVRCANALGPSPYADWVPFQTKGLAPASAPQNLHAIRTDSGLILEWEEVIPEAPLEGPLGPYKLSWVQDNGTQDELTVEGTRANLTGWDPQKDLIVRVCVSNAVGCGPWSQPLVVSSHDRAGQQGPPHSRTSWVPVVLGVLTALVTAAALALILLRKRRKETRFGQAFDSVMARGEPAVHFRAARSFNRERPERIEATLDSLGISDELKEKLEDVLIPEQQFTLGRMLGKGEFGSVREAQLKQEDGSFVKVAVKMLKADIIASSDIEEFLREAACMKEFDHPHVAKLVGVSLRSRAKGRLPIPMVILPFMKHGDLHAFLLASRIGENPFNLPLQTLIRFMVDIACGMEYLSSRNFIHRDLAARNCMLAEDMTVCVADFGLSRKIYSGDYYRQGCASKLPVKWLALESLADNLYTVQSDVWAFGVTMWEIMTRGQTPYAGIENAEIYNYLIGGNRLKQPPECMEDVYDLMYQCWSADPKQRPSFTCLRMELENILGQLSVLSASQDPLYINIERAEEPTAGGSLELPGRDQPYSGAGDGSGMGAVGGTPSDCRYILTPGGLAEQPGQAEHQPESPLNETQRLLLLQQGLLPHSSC
Regarding `COc1ccc(OC)c2c(=S)c3ccccc3[nH]c12`, the residual activity was 97.1%.
Same read-out and setting: to `O=C1NC(=O)/C(=C\c2ccc3nccnc3c2)S1` belongs 99.1%; to `CC(C)c1nn(-c2c(Cl)cccc2Cl)c2nc(Cc3ccc(OCCO)cc3)nc(O)c12`, 97.8%.

(Values after the kinase profiling compilation of Christmann-Franck et al. (2016).)
